The source of these data is patent US12605439B2 (priority 2017, dated 2026).

One assay deals with SIIN specific T cell. It is filed as cell-based.
A further assay relates to LK^b cells. It counts as cell-based.

As to “QLE SIINFEKL TEW (QLESIINFEKLTEW; OVA peptide used in the Examples) [Ext SIIN, extended model ovalbumin peptide with three flanking residues at both termini]”, the “activation of T cells compared to free peptide” value with SIIN specific T cell is recorded as “equivalent”. Besides, the “presentation of CD8 epitope compared to free peptide loading” value in the assay with LK^b cells is on record as “lower”.
